US20240350392A1, “COMPOSITION WITH BIOLOGICALLY ACTIVE AGENT” (THE BOOTS COMPANY PLC, priority 2021, published 2024)
Residues, ends and D or L forms follow the SMILES beside them. *: point of attachment. Palmitoyl = CCCCCCCCCCCCCCCC(=O)*

Experiment: Franz cell ex vivo skin explant penetration with 3D OrbiSIMS analysis
Format: in vitro ADME, human
Conditions: after 1 hour in Franz cell; formulation with glycerin+methyl gluceth-20 versus glycerin only (FIG. 1)
Method: For ex vivo analysis, full thickness human skin tissue was removed during cosmetic surgery from Caucasian female donors (aged 35-70). The explant was frozen immediately post-surgery, shipped and stored at −20° C. prior to use.
The tissue was then defrosted, cut and mounted, dermal side down, in a Franz-type static diffusion cell set-up (Franz, 1975), with an exposed surface area of 1.1 cm^2. Infinite doses of the cosmetic formulations were applied to the donor chamber, with the explant exposed to the formulations for 1 hour in a water bath set to 36.5° C. Sink conditions were maintained throughout the experiments.
After 1 hour, the Franz cell was dismantled, excess formulation was removed with a dry sponge and the skin explant was wiped with a sponge soaked in Teepol Solution (3% v/v). Next, the explant was dehydrated under vacuum at room temperature for 24 hours before 3D OrbiSIMS analysis 3D OrbiSIMS Analysis […]
A 20 KeV Ar 3000^+ analysis beam with a diameter of 20 μm was used as the primary ion source. Samples were analysed at ambient temperature across a 400×400 μm area in positive polarity with sawtooth raster mode and a total crater size of 486×486 μm. […] Mass spectra were recorded at a resolution of 240,000 at m/z 200 in the mass range of 75 to 1,125 m/z. […]

Pal-GHK peptide ion intensity in skin explant: more peptide ion present
SMILES: CCCCCCCCCCCCCCCC(=O)NCC(=O)N[C@@H](Cc1c[nH]cn1)C(=O)N[C@@H](CCCCN)C(=O)O [Pal-GHK, N-Palmitoyl-Gly-His-Lys] (Palmitoyl-Gly-His-Lys-OH; C-terminus assumed)
